Data reported in ChEMBL document CHEMBL1201862, “PubChem BioAssay data set” (2004).
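Results reflect a 48-hour exposure of cells in 96-well plates to compound at five concentrations. Here, GI50 denotes the concentration required for 50% inhibition of growth.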 Active and inactive are the calls of the source. No stated cut-off is given here; in the data, active = GI50 up to about 1.1 µM and inactive = higher.

How the values were obtained:
Experiment in all cases: inhibition of tumour cell growth, NCI panel, 48 h
786-0 = system: 786-0
A549 = system: A549
COLO 205 = system: COLO 205
DLD-1 = system: DLD-1
HOP-92 = system: HOP-92
HT-29 = system: HT-29
IGROV-1 = system: IGROV-1
LOX IMVI = system: LOX IMVI
Malme-3M = system: Malme-3M
NCI-H23 = system: NCI-H23
NCI-H460 = system: NCI-H460
OVCAR-3 = system: OVCAR-3
OVCAR-4 = system: OVCAR-4
OVCAR-8 = system: OVCAR-8
PC-3 = system: PC-3
RPMI-8226 = system: RPMI-8226
SF-295 = system: SF-295
SNB-19 = system: SNB-19
SNB-75 = system: SNB-75
U-251 = system: U-251

Measured: GI50

CN1c2c(O)nc(N)nc2NCC1CCNc1ccc(C(=O)NC(CCC(=O)O)C(=O)O)cc1 (stereo not given)
inactive: 786-0 4.59 µM | A549 242 µM | COLO 205 1330 µM | DLD-1 891 µM | HOP-92 1490 µM | HT-29 19.6 µM | IGROV-1 1030 µM | LOX IMVI 4.06 µM | Malme-3M 1410 µM | NCI-H23 1640 µM | NCI-H460 35.6 µM | OVCAR-3 857 µM | OVCAR-4 893 µM | OVCAR-8 1160 µM | PC-3 7.16 µM | RPMI-8226 141 µM | SF-295 187 µM | SNB-19 1820 µM | SNB-75 553 µM | U-251 32.4 µM

COc1ccc(/C=C2\CCC(CN(C)C)C2=O)cc1OC (stereo not given)
inactive: 786-0 3.34 µM | A549 17.2 µM | COLO 205 2.07 µM | DLD-1 2.69 µM | HOP-92 5.69 µM | HT-29 5.61 µM | IGROV-1 13.1 µM | LOX IMVI 1.91 µM | Malme-3M 3.95 µM | NCI-H23 7.82 µM | NCI-H460 11.1 µM | OVCAR-3 7.21 µM | OVCAR-4 7.64 µM | OVCAR-8 2.9 µM | PC-3 7.55 µM | RPMI-8226 1.28 µM | SF-295 15.1 µM | SNB-19 16.5 µM | SNB-75 8.49 µM | U-251 16.1 µM
